Tests used:
[1] = system: human cord blood CD34+ cells; experiment: In vitro erythroid differentiation of human CD34+ umbilical cord blood cells; type: cell-based; details: CLEU 2.5 mg/ml, differentiation medium 7 days
Method: Human CD34^+ umbilical cord blood cells were obtained from the Kanto Koshinetsu Block Blood Center (Tokyo, Japan). The use of cord blood samples for research purposes was approved by the Tohoku University Ethics Committee. The technical details of this method have been described previously. Briefly, CD34^+ umbilical cord blood cells were cultured in growth medium for 5 days, and subsequently, the cells (1×10^5/ml) were cultured in differentiation medium for 7 days. For treatment with CLEU, the concentration thereof was 2.5 mg/ml. As the growth medium, StemMACS HSC Expansion Media XF, human (MACS), supplemented with StemMACS HSC Expansion Cocktail, human (MACS) was used. As the differentiation medium, StemSpan SFEM (STEMCELL) supplemented with hSCF (100 ng/ml; Peprotech), hFLT3-L (33.3 ng/ml; Peprotech), hIL3 (13.3 ng/ml; Peprotech), hBMP4 (13.3 ng/ml; Peprotech), hEPO (2.67 IU/ml; Kyowa Kirin Co., Ltd.), and hydrocortisone (1 μM; Sigma) was used.
Finally, the effect of CLEU on in vitro erythroid cell differentiation conditions of human cord blood CD34^+ cells was investigated.

[2] = Complete blood count of peripheral blood of treated mice; type: in vivo; details: CLEU 50 mg/body i.p.
Method: (§1) Wild-type mice with a genetic background of C57BL/6J were purchased from Charles River Laboratories, Inc. Mice at 8 to 14 weeks of age were used for analysis. For CLEU treatment (50 mg/body), a solution of cycloleucine (CLEU) was prepared by diluting cycloleucine (CLEU) (Sigma) in PBS (50 mg/ml), and 1 ml of the CLEU solution was administered intraperitoneally. For AKBA treatment (2 mg/body), 2 mg AKBA (Enzo Life Sciences)/20% DMSO/1 mL PBS solution was administered intraperitoneally. Vehicle without AKBA was used as a control. For measuring complete blood count of peripheral blood, peripheral blood was collected from facial veins and counted by use of an automated animal blood cell counter (microsemi LC-662). All of the experiments conducted in this study were approved by the Animal Experiment Committee of the Environmental Safety Committee of Tohoku University.

erythropoietin = experiment: Serum erythropoietin levels determined by ELISA; type: in vivo, mouse; details: CLEU 50 mg/body i.p., vs PBS
Excerpt: FIG. 2 is the experimental result showing that a significant erythropoiesis was induced independently of erythropoietin as a result of SAM reduction by CLEU. Panel A: Abundance of SAM in cells selected from bone marrow subset II treated with PBS or CLEU (Day 2). Panel B: Peripheral blood hemoglobin concentration on the days indicated after PBS or CLEU treatment. Panel C: Total bone marrow cells harvested from the left and right femur and tibiae of PBS or CLEU treated mouse (Day 2). Panel D: Representative image (photograph) of tibia of PBS or CLEU treated mouse (Day 2). Panels E and F: Matured bone marrow cells from each group analyzed by flow cytometry (Day 2). Representative results of flow cytometric analysis are shown in Panel E. Cumulative cell numbers in each of the indicated groups are shown in F. Red blood cell (Ter119^+ Gr1^− B220^− CD4^− CD8^−), myeloid (Gr1^+ Ter119^− B220^− CD4^− CD8^−), and B cells (B220^+ Ter119^− Gr1^− CD4^− CD8^−). Panels G and H: Numbers of bone marrow erythroblasts in each of the subsets analyzed by flow cytometry (Day 2). […] Panel L: Serum erythropoietin levels determined by ELISA. […] For measuring complete blood count of peripheral blood, peripheral blood was collected from facial veins and counted by use of an automated animal blood cell counter (microsemi LC-662). […]

[3] = system: bone marrow erythroblasts; experiment: Flow cytometry of bone marrow cells / erythroblast subsets (Ter119/CD71 double staining) of treated mice; type: in vivo, mouse; details: CLEU 50 mg/body i.p.
Method: as §1
BM cells and spleen cells were harvested in a conventional manner. Cells were stained with combinations of antibodies specific to erythroblasts and mature cells, to thereby identify them. The cells were visualized with antibody and streptavidin-peridinin chlorophyll protein-cyanin 5.5. The antibodies used in this study were as follows: anti-CD3e (145-2C11), anti-CD4 (GK1.5 or RM4.5), anti-CD8a (53-6.7), anti-Gr-1 (RB6-8C5), anti-B220 (RA3-6B2), anti-Ter-119 (TER-119), anti-CD71 (R17217 or C2). Cells were stained with […] (Sigma), and dead cells were excluded from analysis. Flow cytometric analysis and cell sorting were performed according to the manufacturer's protocol using FACS AriaII (BD), and then the obtained data were analyzed using FlowJo software (TreeStar).
Additionally, MAT inhibitor PF9366 (PF) was administered to mice and the effect thereof was investigated. Vehicle (DMSO) (control (Ctrl)) or 10 mM PF9366 (prepared at a concentration of 40 μl/40 ml water) was provided in a drinking bottle (0 h). In addition, 80 μl of vehicle (DMSO) or 80 μl of 10 mM PF9366 dissolved in 1 ml PBS was also administered intraperitoneally at 0 h and 24 h. Analysis was carried out at Day 2 (48 h).
MAT inhibitor 3-acetyl-11-keto-β-boswellic acid (AKBA; 2 mg/body) was intraperitoneally administered to mice at 0 and 24 hours, and analyzed after 48 hours.

For `NC1(C(=O)O)CCCC1` [CLEU, cycloleucine], which “erythroid differentiation and maturation of human cord blood CD34+ cells” value [1] is on record?
Its value is “induce not only erythroid differentiation but also maturation”.

What about the hematocrit ([2]; Days 1-6, vs PBS) of the same compound?
The hematocrit was “marked increase”.

What about the platelet counts ([2]; Days 1-6, vs PBS) of the same compound?
The platelet counts was “no particularly consistent differences”.

And the red blood cells ([2]; Days 1-6, vs PBS)?
Its red blood cells is “marked increase”.

What about the “white blood cell counts” value ([2]; Days 1-6, vs PBS) of the same compound?
Its value is “no particularly consistent differences”.

And the hemoglobin levels ([2]; peripheral blood, vs PBS)?
Its hemoglobin levels is “marked increase”.

What about the serum erythropoietin levels (erythropoietin) of the same compound?
The serum erythropoietin levels was “significantly down-regulated”.

What about the “subset from which the increase of erythroblasts was initiated” value ([3]; Day 2, Ter119/CD71 double staining) of the same compound?
Its value is “initiated from subset II”.

And the maturation of erythroblasts ([3]; Day 2, Ter119/CD71 double staining, vs PBS)?
The maturation of erythroblasts was “significantly up-regulated”.

And the “erythroid cells in BM” value ([3]; Day 2, flow cytometry, vs PBS)?
Its value is “considerable increase”.

And the BM cell counts ([3]; femur and tibiae, Day 2, vs PBS)?
Its BM cell counts is “significantly increased”.

Reference: patent publication US11554124B2, “Hematopoiesis-enhancing agent” (priority 2018, dated 2023)
